Experimental data: article PMC9469100, “Turning Nonselective Inhibitors of Type I Protein Arginine Methyltransferases into Potent and Selective Inhibitors of Protein Arginine Methyltransferase 4 through a Deconstruction–Reconstruction and Fragment-Growing Approach” (Journal of Medicinal Chemistry, 2022)
Like-named read-outs stand apart in the source and are kept apart here.

Key:
[1] = target: PRMT6 (Homo sapiens, UniProt Q96LA8); experiment: Radioisotope-based filter-binding (HotSpot) assay, PRMT6; conditions: radioisotope-based filter assay
Experimental: (§1) Then, ^3H-SAM (final concentration 1 μM) was delivered into the reaction mixture to initiate the reaction. After incubation for 60 min at 30 °C, the reaction mixture was delivered to filter paper for detection (as assessed by scintillation). Data were analyzed using Excel and GraphPad Prism 6.0 software (GraphPad Software Inc., San Diego, CA) for IC50 curve fits using sigmoidal dose vs response-variable slope (four parameters) equations.

[2] = target: PRMT5/MEP50 complex (Homo sapiens, UniProt O14744); experiment: Radioisotope-based filter-binding (HotSpot) assay, PRMT5
Experimental: as §1

[3] = target: T1, PRMT4 (Homo sapiens, UniProt Q86X55); experiment: Radioisotope-based filter-binding (HotSpot) assay, PRMT4; conditions: for LE: ligand efficiency for PRMT4 calculated from IC50 as a surrogate for KD; for selectivity index for PRMT4 vs other PRMTs: PRMT1: ratio IC50 PRMT1 / IC50 PRMT4, rounded to nearest integer; for selectivity index for PRMT4 vs other PRMTs: PRMT3: ratio IC50 PRMT3 / IC50 PRMT4; for selectivity index for PRMT4 vs other PRMTs: PRMT5: ratio IC50 PRMT5 / IC50 PRMT4; for selectivity index for PRMT4 vs other PRMTs: PRMT6: ratio IC50 PRMT6 / IC50 PRMT4; for selectivity index for PRMT4 vs other PRMTs: PRMT7: ratio IC50 PRMT7 / IC50 PRMT4; for selectivity index for PRMT4 vs other PRMTs: PRMT8: ratio IC50 PRMT8 / IC50 PRMT4; for IC50: radioisotope-based filter assay; for SI PRMT1 (Figure 5 heatmap): selectivity index for PRMT4 over PRMT1; for SI PRMT3 (Figure 5 heatmap): selectivity index for PRMT4 over PRMT3; for SI PRMT5 (Figure 5 heatmap): selectivity index for PRMT4 over PRMT5; for SI PRMT6 (Figure 5 heatmap): selectivity index for PRMT4 over PRMT6; for SI PRMT7 (Figure 5 heatmap): selectivity index for PRMT4 over PRMT7; for SI PRMT8 (Figure 5 heatmap): selectivity index for PRMT4 over PRMT8
T1 sequence (Q86X55 2-608): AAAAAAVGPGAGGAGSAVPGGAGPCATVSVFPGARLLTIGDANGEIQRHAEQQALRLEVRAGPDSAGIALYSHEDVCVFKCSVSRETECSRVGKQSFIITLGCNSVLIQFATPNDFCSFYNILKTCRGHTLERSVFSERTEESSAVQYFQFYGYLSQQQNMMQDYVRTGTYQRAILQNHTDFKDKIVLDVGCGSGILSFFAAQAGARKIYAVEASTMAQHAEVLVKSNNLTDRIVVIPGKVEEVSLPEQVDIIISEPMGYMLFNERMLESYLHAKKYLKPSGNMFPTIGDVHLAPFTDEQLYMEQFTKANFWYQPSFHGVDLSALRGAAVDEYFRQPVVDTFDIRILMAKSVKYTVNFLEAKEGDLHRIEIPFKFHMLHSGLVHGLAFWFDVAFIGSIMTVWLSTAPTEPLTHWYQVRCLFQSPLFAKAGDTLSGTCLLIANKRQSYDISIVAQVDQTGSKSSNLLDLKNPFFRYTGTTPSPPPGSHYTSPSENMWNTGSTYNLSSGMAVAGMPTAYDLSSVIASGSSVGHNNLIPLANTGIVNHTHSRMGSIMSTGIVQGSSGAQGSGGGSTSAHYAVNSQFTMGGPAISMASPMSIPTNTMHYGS
Experimental: as §1

[4] = target: T2, human PRMT4 (full length) (Homo sapiens, UniProt Q86X55); experiment: SPR binding to immobilized PRMT4; conditions: for koff / Kd / kon: SPR; for koff / kon: immobilized PRMT4; for Kd: immobilized PRMT4, 25 °C, KD from ratio koff/kon; for kon: read-out: kon; for τR: in vitro residence time, τ = 1/koff
T2 construct: Full-length recombinant PRMT4 (Active motif, # 81107); purchased Active motif # 81107
T2 sequence (Q86X55 1-608): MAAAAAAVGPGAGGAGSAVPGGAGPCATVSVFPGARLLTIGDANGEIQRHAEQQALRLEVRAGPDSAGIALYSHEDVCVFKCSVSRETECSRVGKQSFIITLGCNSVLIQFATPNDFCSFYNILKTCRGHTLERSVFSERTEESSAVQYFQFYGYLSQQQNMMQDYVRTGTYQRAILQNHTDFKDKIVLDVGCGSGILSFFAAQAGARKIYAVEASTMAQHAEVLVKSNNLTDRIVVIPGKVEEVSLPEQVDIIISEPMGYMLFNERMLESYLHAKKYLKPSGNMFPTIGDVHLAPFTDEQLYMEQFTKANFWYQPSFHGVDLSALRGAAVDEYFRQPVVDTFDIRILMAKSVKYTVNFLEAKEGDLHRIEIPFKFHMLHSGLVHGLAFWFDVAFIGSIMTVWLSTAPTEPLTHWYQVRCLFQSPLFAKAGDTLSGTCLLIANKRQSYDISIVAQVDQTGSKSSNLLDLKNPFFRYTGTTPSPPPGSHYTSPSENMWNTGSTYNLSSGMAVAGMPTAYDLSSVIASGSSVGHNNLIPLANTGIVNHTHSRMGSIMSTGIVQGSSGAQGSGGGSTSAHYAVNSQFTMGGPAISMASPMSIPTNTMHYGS
Experimental: To this aim, human PRMT4 (full length) was covalently immobilized on a sensor chip surface using an amine-coupling approach, and the three compounds were injected at different concentrations over the protein surface. To reduce false positives from detergent-sensitive, nonspecific aggregation-based binding, detergents (0.05% Tween-20) were added to the running buffer in all experiments.
SPR experiments were performed on a Biacore T200 biosensor (Cytiva). PBS buffer (phosphate-buffered saline, pH 7.4) supplemented with 0.05% Tween-20 was used as the running buffer. […] One flow cell was left empty for background subtractions. […] Each compound was tested in […], prepared starting from 640 to 10 nM. Binding experiments were performed at 25 °C by using a flow rate of 30 μL/min, with 90 s monitoring of association and 90 s monitoring of dissociation. Regeneration of the surfaces was performed, when necessary, by a 10 s injection of 5 mM NaOH. […] The corrected sensorgrams for each compound were fitted simultaneously using a 1:1 Langmuir model to obtain equilibrium dissociation constants (KD) and kinetic dissociation (koff) and association (kon) constants.

[5] = target: PRMT3 (Homo sapiens, UniProt O60678); experiment: Radioisotope-based filter-binding (HotSpot) assay, PRMT3; conditions: radioisotope-based filter assay
Experimental: as §1

[6] = target: ΔN(1–60)-PRMT8 (Homo sapiens, UniProt Q9NR22); experiment: Radioisotope-based filter-binding (HotSpot) assay, PRMT8
Experimental: as §1

[7] = Parallel artificial membrane permeability assay (PAMPA); format: in vitro ADME; conditions: phosphate buffer pH 7.4, donor 0.2 mM, 24 h at room temperature
Experimental: A donor solution (0.2 mM) was prepared by diluting 20 mM dimethyl sulfoxide (DMSO) compound stock solution using phosphate buffer (pH 7.4, 0.01 M). Filters were coated with 5 μL of a 1% (w/v) dodecane solution of L-α-phosphatidylcholine. Donor solution (150 μL) was added to each well of the filter plate. To each well of the acceptor plate, 300 μL of solution (5% DMSO in phosphate buffer) was added. […] The sandwich was incubated for 24 h at room temperature under gentle shaking. After the incubation time, the sandwich plates were separated, and 250 μL of the acceptor plate was transferred to a UV quartz microtiter plate and measured by UV spectroscopy, using a Multiskan GO microplate spectrophotometer (Thermo Fisher Scientific) at 250–500 nm at a step of 5 nm. Reference solutions (250 μL) were prepared diluting the sample stock solutions to the same concentration as that with no membrane barrier.

[8] = read-out: IC50 (μM) PRMT6, 5 μM GST-GAR, 1 μM 3H-SAM
[9] = on increasing the linker between 4-hydroxy-2-naphthoate and guanidine (values equal the ratio to the IC50 of 12c)
[10] = read-out: IC50 (μM) PRMT5, radioisotope-based filter assay, 5 μM histone H2A, 1 μM 3H-SAM
[11] = read-out: IC50 PRMT5 (Figure 5 heatmap), radioisotope-based filter assay
[12] = read-out: IC50 (μM) PRMT4, 5 μM histone H3, 1 μM 3H-SAM
[13] = read-out: IC50 (μM) PRMT3, 5 μM histone H4, 1 μM 3H-SAM
[14] = read-out: IC50 PRMT3 (Figure 5 heatmap)
[15] = read-out: IC50 (μM) PRMT8, 5 μM histone H4, 1 μM 3H-SAM
[16] = read-out: IC50 PRMT8 (Figure 5 heatmap)

Chain of PRMT5/MEP50 complex (O14744 2-637): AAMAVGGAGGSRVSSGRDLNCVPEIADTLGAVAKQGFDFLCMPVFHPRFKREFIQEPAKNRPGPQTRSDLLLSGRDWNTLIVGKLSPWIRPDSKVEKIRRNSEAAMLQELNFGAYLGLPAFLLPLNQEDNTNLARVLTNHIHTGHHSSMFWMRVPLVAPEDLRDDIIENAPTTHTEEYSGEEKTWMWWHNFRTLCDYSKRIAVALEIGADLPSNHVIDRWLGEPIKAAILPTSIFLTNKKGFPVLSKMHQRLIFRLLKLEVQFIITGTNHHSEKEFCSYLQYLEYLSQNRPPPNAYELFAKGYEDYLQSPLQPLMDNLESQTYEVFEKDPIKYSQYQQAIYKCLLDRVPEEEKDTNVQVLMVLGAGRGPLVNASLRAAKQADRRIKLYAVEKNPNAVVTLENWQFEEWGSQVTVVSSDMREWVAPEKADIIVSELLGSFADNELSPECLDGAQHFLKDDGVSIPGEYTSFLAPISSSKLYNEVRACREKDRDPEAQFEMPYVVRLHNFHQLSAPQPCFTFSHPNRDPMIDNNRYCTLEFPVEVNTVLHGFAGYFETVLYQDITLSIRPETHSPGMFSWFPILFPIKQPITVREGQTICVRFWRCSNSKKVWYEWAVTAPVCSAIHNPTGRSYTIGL
Chain of PRMT5/MEP50 complex (Q9BQA1 2-342 partner limits assumed): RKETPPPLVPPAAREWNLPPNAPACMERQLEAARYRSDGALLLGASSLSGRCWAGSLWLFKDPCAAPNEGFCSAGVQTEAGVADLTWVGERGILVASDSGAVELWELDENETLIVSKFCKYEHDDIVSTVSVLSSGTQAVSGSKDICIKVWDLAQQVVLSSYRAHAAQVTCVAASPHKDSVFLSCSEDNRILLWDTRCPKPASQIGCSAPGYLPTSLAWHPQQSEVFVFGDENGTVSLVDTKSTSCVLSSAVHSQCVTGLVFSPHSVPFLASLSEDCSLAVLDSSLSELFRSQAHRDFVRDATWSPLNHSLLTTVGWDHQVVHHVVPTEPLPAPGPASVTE
Chain of PRMT3 (O60678 2-531): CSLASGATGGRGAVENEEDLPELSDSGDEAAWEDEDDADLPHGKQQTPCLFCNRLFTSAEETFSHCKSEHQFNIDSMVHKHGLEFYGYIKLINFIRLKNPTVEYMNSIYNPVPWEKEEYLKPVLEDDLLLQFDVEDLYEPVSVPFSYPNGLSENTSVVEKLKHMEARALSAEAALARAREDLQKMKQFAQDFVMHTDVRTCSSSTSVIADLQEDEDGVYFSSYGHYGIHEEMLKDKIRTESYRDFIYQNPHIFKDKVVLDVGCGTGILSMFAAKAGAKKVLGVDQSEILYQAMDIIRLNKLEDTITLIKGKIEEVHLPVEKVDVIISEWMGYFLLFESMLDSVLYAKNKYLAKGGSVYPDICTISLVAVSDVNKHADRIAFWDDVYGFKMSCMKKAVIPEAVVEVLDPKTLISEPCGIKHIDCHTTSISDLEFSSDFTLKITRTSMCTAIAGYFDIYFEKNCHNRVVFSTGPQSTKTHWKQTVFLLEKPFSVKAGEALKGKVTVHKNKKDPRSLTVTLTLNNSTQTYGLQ
Chain of PRMT6 (Q96LA8 2-375): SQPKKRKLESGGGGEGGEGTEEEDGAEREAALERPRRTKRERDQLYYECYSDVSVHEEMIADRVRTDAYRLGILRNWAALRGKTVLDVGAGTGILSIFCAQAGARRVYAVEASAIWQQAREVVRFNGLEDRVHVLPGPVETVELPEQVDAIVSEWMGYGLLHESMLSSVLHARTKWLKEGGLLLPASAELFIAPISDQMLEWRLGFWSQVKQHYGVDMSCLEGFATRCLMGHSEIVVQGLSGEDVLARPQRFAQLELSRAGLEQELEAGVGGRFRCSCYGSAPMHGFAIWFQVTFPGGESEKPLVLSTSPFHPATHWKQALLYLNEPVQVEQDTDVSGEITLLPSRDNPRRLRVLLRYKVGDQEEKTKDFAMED
Chain of ΔN(1–60)-PRMT8 (Q9NR22 61-394, stated change not applied): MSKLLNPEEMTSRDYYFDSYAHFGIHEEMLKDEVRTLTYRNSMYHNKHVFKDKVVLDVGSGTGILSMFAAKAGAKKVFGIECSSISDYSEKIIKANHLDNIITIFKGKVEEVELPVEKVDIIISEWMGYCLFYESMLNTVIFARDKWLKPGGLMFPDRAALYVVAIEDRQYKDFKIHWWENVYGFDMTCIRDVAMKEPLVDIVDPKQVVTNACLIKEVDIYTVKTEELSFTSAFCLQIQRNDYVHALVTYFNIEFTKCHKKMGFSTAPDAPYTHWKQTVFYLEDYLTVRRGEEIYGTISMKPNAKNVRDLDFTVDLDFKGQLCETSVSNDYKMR

IC50 [1, 8] | IC50 [2, 10] | LE [3] | selectivity index for PRMT4 vs other PRMTs: PRMT1 [3] | selectivity index for PRMT4 vs other PRMTs: PRMT3 [3] | selectivity index for PRMT4 vs other PRMTs: PRMT5 [3] | selectivity index for PRMT4 vs other PRMTs: PRMT6 [3] | selectivity index for PRMT4 vs other PRMTs: PRMT7 [3] | selectivity index for PRMT4 vs other PRMTs: PRMT8 [3] | IC50 [3, 12] | SI PRMT1 (Figure 5 heatmap) [3] | SI PRMT3 (Figure 5 heatmap) [3] | SI PRMT5 (Figure 5 heatmap) [3] | SI PRMT6 (Figure 5 heatmap) [3] | SI PRMT7 (Figure 5 heatmap) [3] | SI PRMT8 (Figure 5 heatmap) [3] | koff [4] | IC50 [5, 13] | IC50 [6, 15] | SMILES | IC50 [2, 11] | also measured
35.6 µM | 3.38 µM | 0.20 | 15 | 70 | 19 | 202 | 4 | 33 | 0.176 µM | 15 fold | 70 fold | 19 fold | 202 fold | 4 fold | 33 fold | 0.015 s⁻¹ | 12.4 µM | 5.84 µM | COC(=O)c1cc(O)c2cc(NC(=O)NCCCCCCCNC(=N)NC[C@H]3O[C@@H](n4cnc5c(N)ncnc54)[C@H](O)[C@@H]3O)ccc2c1 [12e, Methyl 6-(3-(7-(3-(((2R,3S,4R,5R)-5-(6-Amino-9H-purin-9-yl)-3,4-dihydroxytetrahydrofuran-2-yl)methyl)guanidino)heptyl)ureido)-4-hydroxy-2-naphthoate] | 3.38 µM | gain in the inhibitory activity against PRMT5 [2, 9]: 15.2 fold; gain in the inhibitory activity against PRMT4 [3, 9]: 2.4 fold; Kd [4]: 0.603 µM; kon [4]: 25800 M⁻¹ s⁻¹; τR [4]: 66.7 s; IC50 [5, 14]: 12.4 µM
> 100 µM | 51.4 µM | 0.19 | 20 | 51 | 122 | >238 | 0.52 | 14 | 0.42 µM | 20 fold | 51 fold | 122 fold | > 238 fold | 0.52 fold | 14 fold | 0.013 s⁻¹ | 21.3 µM | 5.87 µM | COC(=O)c1cc(O)c2cc(NC(=O)NCCCCCNC(=N)NC[C@H]3O[C@@H](n4cnc5c(N)ncnc54)[C@H](O)[C@@H]3O)ccc2c1 [12c, Methyl 6-(3-(5-(3-(((2R,3S,4R,5R)-5-(6-Amino-9H-purin-9-yl)-3,4-dihydroxytetrahydrofuran-2-yl)methyl)guanidino)pentyl)ureido)-4-hydroxy-2-naphthoate] |  | IC50 [2]: 5.14 µM; IC50 ([3]; read-out: IC50 PRMT4 (Figure 5 heatmap)): 0.421 µM; Kd [4]: 0.359 µM; kon [4]: 34900 M⁻¹ s⁻¹; τR [4]: 76.9 s; IC50 [6, 16]: 5.87 µM

SMILES | IC50 [1, 8] | IC50 [2, 10] | LE [3] | selectivity index for PRMT4 vs other PRMTs: PRMT1 [3] | selectivity index for PRMT4 vs other PRMTs: PRMT3 [3] | selectivity index for PRMT4 vs other PRMTs: PRMT5 [3] | selectivity index for PRMT4 vs other PRMTs: PRMT6 [3] | selectivity index for PRMT4 vs other PRMTs: PRMT7 [3] | selectivity index for PRMT4 vs other PRMTs: PRMT8 [3] | IC50 [3, 12] | SI PRMT1 (Figure 5 heatmap) [3] | SI PRMT3 (Figure 5 heatmap) [3] | SI PRMT5 (Figure 5 heatmap) [3] | SI PRMT6 (Figure 5 heatmap) [3] | SI PRMT7 (Figure 5 heatmap) [3] | SI PRMT8 (Figure 5 heatmap) [3] | koff [4] | IC50 [5, 13] | IC50 [6, 15] | IC50 [2, 11] | also measured
COC(=O)c1cc(O)c2cc(NC(=O)NCCCCNC(=N)NC/C=C/[C@H]3O[C@@H](n4cnc5c(N)ncnc54)[C@H](O)[C@@H]3O)ccc2c1 [12h, Methyl 6-(3-(4-(3-((E)-3-((2R,3S,4R,5R)-5-(6-Amino-9H-purin-9-yl)-3,4-dihydroxytetrahydrofuran-2-yl)allyl)guanidino)butyl)ureido)-4-hydroxy-2-naphthoate] | 1.75 µM | 1.46 µM |  |  |  |  |  |  |  | 0.0032 µM |  |  |  |  |  |  |  | 4.05 µM | 1.95 µM | 1.46 µM | IC50 ([1]; read-out: IC50 PRMT6 (Figure 5 heatmap)): 1.75 µM; Papp at 24 h, 0.2 mM [7]: 0.38 nm/s; IC50 ([3]; IC50 PRMT4 (Figure 5 heatmap)): 0.003 µM; gain in potency over its shorter counterpart 12b ([3]; PRMT4): 668 fold; IC50 [5, 14]: 4.04 µM; IC50 [6, 16]: 1.95 µM
